Experimental findings from PMC7802075 (ACS Infectious Diseases, 2020) are described below.

The target of one test is T1, LmjIPCS (inositol phosphorylceramide synthase from L. major) (Leishmania major, UniProt E9AFX2).
T1 sequence (E9AFX2 1-338): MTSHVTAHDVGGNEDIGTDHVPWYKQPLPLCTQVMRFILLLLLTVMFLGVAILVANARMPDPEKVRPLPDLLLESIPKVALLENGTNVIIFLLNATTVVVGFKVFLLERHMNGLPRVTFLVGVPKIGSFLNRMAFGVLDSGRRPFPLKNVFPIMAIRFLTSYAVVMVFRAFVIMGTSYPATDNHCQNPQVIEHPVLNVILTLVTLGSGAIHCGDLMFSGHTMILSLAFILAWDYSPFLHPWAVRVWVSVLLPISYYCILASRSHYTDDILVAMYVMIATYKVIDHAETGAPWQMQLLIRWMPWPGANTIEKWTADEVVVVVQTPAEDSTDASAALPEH
The test is described as follows: biochemical.
Conditions: not given
The arrangement: inhibition: dose or concentration left out as unconfirmed. It is filed as biochemical.
`CC1=C(O)C(=O)C=C2C1=CC=C1[C@@]2(C)CC[C@@]2(C)[C@@H]3C[C@](C)(C(=O)O)CC[C@]3(C)CC[C@]12C` [CELASTROL]: the “20mM inhibition LmjIPCS” value is recorded as 54%.

For `Cc1ccc(-c2cc(C(F)(F)F)nn2-c2ccc(S(N)(=O)=O)cc2)cc1` [CELECOXIB], the “20mM inhibition LmjIPCS” value is 51%.

With `CC(=O)OCC1=C(C(=O)O)N2C(=O)[C@@H](NC(=O)Cc3cccs3)[C@H]2SC1` [CEPHALOTHIN], the “20mM inhibition LmjIPCS” value was found to be 55%.

With `CC(=O)OCC1=C(C(=O)O)N2C(=O)[C@@H](NC(=O)CSc3ccncc3)[C@H]2SC1` [CEPHAPIRIN], the “20mM inhibition LmjIPCS” value is on record as 47%.

As to `COc1ccc2cc1Oc1ccc(cc1)C[C@H]1c3c(cc4c(c3Oc3cc5c(cc3OC)CCN(C)[C@@H]5C2)OCO4)CCN1C` [CEPHARANTHINE], the “20mM inhibition LmjIPCS” value is reported as 59%.

As for `CC1=C(C(=O)O)N2C(=O)[C@@H](NC(=O)[C@H](N)C3=CCC=CC3)[C@H]2SC1` [CEPHRADINE], the “20mM inhibition LmjIPCS” value is 40%.

As to `Cc1cc(O)ccc1Cl` [CHLOROCRESOL], the “20mM inhibition LmjIPCS” value was 49%.

For the molecule `CCN(CC)CCCC(C)Nc1ccnc2cc(Cl)ccc12` (centres unmarked) [CHLOROQUINE], the “20mM inhibition LmjIPCS” value was 38%.

For the molecule `NS(=O)(=O)c1cc2c(cc1Cl)N=CNS2(=O)=O` [CHLOROTHIAZIDE], the “20mM inhibition LmjIPCS” value was 51%.

For the molecule `Oc1c(Cl)cc(Cl)c2cccnc12` [CHLOROXINE], the “20mM inhibition LmjIPCS” value is on record as 37%.

Regarding `Cc1cc(O)cc(C)c1Cl` [CHLOROXYLENOL], the “20mM inhibition LmjIPCS” value was found to be 53%.

For `CN(C)CCC(c1ccc(Cl)cc1)c1ccccn1` (centres unmarked) [CHLORPHENIRAMINE], the “20mM inhibition LmjIPCS” value is 68%.

For `CN(C)[C@@H]1C(O)=C(C(N)=O)C(=O)[C@@]2(O)C(O)=C3C(=O)c4c(O)ccc(Cl)c4[C@@](C)(O)[C@H]3C[C@@H]12` [CHLORTETRACYCLINE], the “20mM inhibition LmjIPCS” value was found to be 56%.

Turning to `NS(=O)(=O)c1cc(C2(O)NC(=O)c3ccccc32)ccc1Cl` (centres unmarked) [CHLORTHALIDONE], the “20mM inhibition LmjIPCS” value is 42%.

For the molecule `CCn1nc(C(=O)O)c(=O)c2cc3c(cc21)OCO3` [CINOXACIN], the “20mM inhibition LmjIPCS” value turned out to be 53%.

Take `C[N+]12CCC(CC1)C(OC(=O)C(O)(c1ccccc1)c1ccccc1)C2` (centres unmarked) [CLIDINIUM BROMIDE]: the “20mM inhibition LmjIPCS” value was 54%.

As for `CCC(=O)O[C@]1(C(=O)CCl)[C@@H](C)C[C@H]2[C@@H]3CCC4=CC(=O)C=C[C@]4(C)[C@@]3(F)[C@@H](O)C[C@@]21C` [CLOBETASOL PROPRIONATE], the “20mM inhibition LmjIPCS” value worked out at 17%.

As for `CC(C)(Oc1ccc(Cl)cc1)C(=O)O` [CLOFIBRIC ACID], the “20mM inhibition LmjIPCS” value worked out at 56%.

For the molecule `Clc1cccc(Cl)c1N=C1NCCN1` [CLONIDINE], the “20mM inhibition LmjIPCS” value was 43%.

Take `Cc1onc(-c2ccccc2Cl)c1C(=O)N[C@@H]1C(=O)N2[C@@H]1SC(C)(C)[C@@H]2C(=O)O` [CLOXACILLIN]: the “20mM inhibition LmjIPCS” value was found to be 45%.

In the case of `CC(=O)OCC(=O)[C@@]1(O)CC[C@H]2[C@@H]3CCC4=CC(=O)CC[C@]4(C)[C@H]3C(=O)C[C@@]21C` [CORTISONE ACETATE], the “20mM inhibition LmjIPCS” value is on record as 62%.

In the case of `CN1C(=O)CC[C@H]1c1cccnc1` [COTININE], the “20mM inhibition LmjIPCS” value is given as 34%.

On to `CN1CCN(C(c2ccccc2)c2ccccc2)CC1` [CYCLIZINE], for which the “20mM inhibition LmjIPCS” value came out at 58%.

The test is the same for the next values; noted with them: NINDS set screen, compound at 20mM (so in the source).
Consider `N.N.[Cl][Pt][Cl]` [CISPLATIN], for which the “20mM inhibition LmjIPCS” value was 21%.

The test is the same for the next values; noted with them: NINDS set screen, single concentration printed as 20mM.
For the molecule `COc1ccc(C(Cl)=C(c2ccc(OC)cc2)c2ccc(OC)cc2)cc1` [CHLOROTRIANISENE], the “20mM inhibition LmjIPCS” value is 65%.

As to `CCCNC(=O)NS(=O)(=O)c1ccc(Cl)cc1` [CHLORPROPAMIDE], the “20mM inhibition LmjIPCS” value turned out to be 55%.

`CC(C)=CC1C(C(=O)O)C1(C)C` (centres unmarked) [CHRYSANTHEMIC ACID]: the “20mM inhibition LmjIPCS” value was determined as 69%.

For the molecule `Cc1cc(C2CCCCC2)n(O)c(=O)c1` [CICLOPIROX OLAMINE], the “20mM inhibition LmjIPCS” value was 66%.

Consider `COc1cc(N)c(Cl)cc1C(=O)NC1CCN(Cc2ccccc2)CC1` [CLEBOPRIDE], for which the “20mM inhibition LmjIPCS” value stood at 47%.

Consider `CC(C)(C)CC(C)(C)c1ccc(O)c(Cc2ccc(Cl)cc2Cl)c1` [CLOFOCTOL], for which the “20mM inhibition LmjIPCS” value is given as 65%.

Consider `Oc1ccc(Cl)c2cccnc12` [CLOXYQUIN], for which the “20mM inhibition LmjIPCS” value stood at 59%.

Turning to `C=C[C@@]1(C)CC(=O)[C@]2(O)[C@@]3(C)[C@@H](O)CCC(C)(C)[C@@H]3[C@H](O)[C@H](OC(C)=O)[C@@]2(C)O1` [COLFORSIN], the “20mM inhibition LmjIPCS” value worked out at 51%.

The same test, now with this note: NINDS set screen; read-out: inhibition LmjIPCS.
Usually inhibition stands for the drop in the measured response relative to a control, in per cent. Consider `O=C(CCCCCCCCCCCCC1CCCC1)Nc1ccc(S(=O)(=O)c2ccc(NC(=O)CCCCCCCCCCCCC3CCCC3)cc2)cc1` [CHAULMOSULFONE], for which the inhibition was 32%.

As to `[H]/N=C(\N/C(=N/[H])Nc1ccc(Cl)cc1)NC(C)C` [CHLOROGUANIDE], the inhibition came out at 28%.

As for `O=C1CCc2cc(OCCCCc3nnnn3C3CCCCC3)ccc2N1` [CILOSTAZOL], the inhibition was 14%.

For the molecule `CC12CCC(CC1)C(C)(C)O2` [CINEOLE], the inhibition is -13%.

On to `CC(=O)NC1CCSC1=O` (centres unmarked) [CITIOLONE], for which the inhibition is -8%.

For `Clc1ccc(C(OCCN2CCCCC2)c2ccccc2)cc1` (centres unmarked) [CLOPERASTINE], the inhibition was found to be 13%.

In the case of `COc1cc2cc3c4cc(OC)c(OC)cc4cc[n+]3c(C)c2cc1OC` [CORALYNE], the inhibition is -5%.

For `CN1CC(=O)NC1=N` [CREATININE], the inhibition is 15%.

As for `CC(C)(O)CC[C@@H](O)[C@](C)(O)[C@H]1CC[C@@]2(O)C3=CC(=O)[C@@H]4C[C@@H](O)[C@@H](O)C[C@]4(C)[C@H]3CC[C@]12C` [CRUSTECDYSONE], the inhibition was -3.51%.

For the molecule `CN(C)CCOC(=O)C(c1ccccc1)C1(O)CCCC1` (centres unmarked) [CYCLOPENTOLATE], the inhibition amounted to 16%.

The same test, now with this note: read-out: 20mM inhibition LmjIPCS.
As for `CC1=C(C(=O)O)N2C(=O)[C@@H](NC(=O)[C@H](N)c3ccccc3)[C@H]2SC1` [CEPHALEXIN], the inhibition at 20000 µM stood at 5.26%.

Regarding `O=C(Cc1cccs1)N[C@@H]1C(=O)N2C(C(=O)[O-])=C(C[n+]3ccccc3)CS[C@H]12` [CEPHALORIDINE], the inhibition at 20000 µM was 22%.

`C/C=C(/C)C(=O)O[C@H]1CC[C@@]2(C)[C@@H]3CC[C@H]4[C@]5(O)C[C@H](O)[C@@]6(O)[C@@H](CN7C[C@@H](C)CC[C@H]7[C@@]6(C)O)[C@]5(O)C[C@@]42O[C@]13O` [CEVADINE]: the inhibition at 20000 µM amounted to 10%.

Regarding `O=C1C(Cl)=C(Cl)C(=O)C(Cl)=C1Cl` [CHLORANIL], the inhibition at 20000 µM is 19%.

On to `CC(=O)O[C@]1(C(C)=O)CC[C@H]2[C@@H]3C=C(Cl)C4=CC(=O)CC[C@]4(C)[C@H]3CC[C@@]21C` [CHLORMADINONE ACETATE], for which the inhibition at 20000 µM was determined as 13%.

As for `CN1C(=O)CCS(=O)(=O)C1c1ccc(Cl)cc1` (centres unmarked) [CHLORMEZANONE], the inhibition at 20000 µM is -1.07%.

For the molecule `CC(=O)Oc1ccc(Cl)c2cccnc12` [CHLOROACETOXYQUINOLINE], the inhibition at 20000 µM stood at 19%.

Turning to `CN/C(=N/CCSCc1nc[nH]c1C)NC#N` [CIMETIDINE], the inhibition at 20000 µM was -0.386%.

Take `O=C(O)c1cn(C2CC2)c2cc(N3CCNCC3)c(F)cc2c1=O` [CIPROFLOXACIN]: the inhibition at 20000 µM stood at 3%.

`C[N+](C)(C)CCOP(=O)(O)OP(=O)([O-])OC[C@H]1O[C@@H](n2ccc(N)nc2=O)[C@H](O)[C@@H]1O` [CITICOLINE]: the inhibition at 20000 µM amounted to 0.108%.

Turning to `COC(=O)[C@H](c1ccccc1Cl)N1CCc2sccc2C1` [CLOPIDOGREL], the inhibition at 20000 µM came to 32%.

As to `COc1cc2c(c(OC)c1OC)-c1ccc(=O)c(O)cc1[C@@H](NC(C)=O)CC2` [COLCHICEINE], the inhibition at 20000 µM worked out at 9%.

With `C[C@@H]1O[C@@H](O[C@H]2CC[C@]3(C=O)[C@H]4CC[C@]5(C)[C@@H](C6=CC(=O)OC6)CC[C@]5(O)[C@@H]4CC[C@]3(O)C2)[C@H](O)[C@H](O)[C@H]1O` [CONVALLATOXIN], the inhibition at 20000 µM came to 16%.

`COc1cc(/C=C/C(=O)CC(=O)/C=C/c2ccc(O)c(OC)c2)ccc1O` [CURCUMIN]: the inhibition at 20000 µM is -10%.

Regarding `CN(C)CCC=C1c2ccccc2C=Cc2ccccc21` [CYCLOBENZAPRINE], the inhibition at 20000 µM is -2.37%.

In the case of `NC1(C(=O)O)CCCC1` [CYCLOLEUCINE], the inhibition at 20000 µM is 12%.

Take `O=P1(N(CCCl)CCCl)NCCCO1` (centres unmarked) [CYCLOPHOSPHAMIDE]: the inhibition at 20000 µM was -0.87%.

The same test, now with this note: read-out: inhibition LmjIPCS.
As to `O=c1cc(-c2ccccc2)oc2cc(O)cc(O)c12` [CHRYSIN], the inhibition was 22%.

Regarding `O=C(O)c1cc(=O)c2c(OCC(O)COc3cccc4oc(C(=O)O)cc(=O)c34)cccc2o1` [CROMOLYN], the inhibition is 0.579%.

As for `N[C@@H]1CON=C1O` [CYCLOSERINE], the inhibition is -1.4%.

The same test, now with this note: screening of NINDS set, sheet Screen 1; read-out: inhibition LmjIPCS.
As to `COc1cc(OC)c2ccc(=O)oc2c1` [CITROPTEN], the inhibition worked out at 2.18%.

For `CC[C@H]1OC(=O)[C@H](C)[C@@H](O[C@H]2C[C@@](C)(OC)[C@@H](O)[C@H](C)O2)[C@H](C)[C@@H](O[C@@H]2O[C@H](C)C[C@H](N(C)C)[C@H]2O)[C@](C)(OC)C[C@@H](C)C(=O)[C@H](C)[C@@H](O)[C@]1(C)O` [CLARITHROMYCIN], the inhibition is 5.71%.

As for `Cc1nc(C)c(Cl)c(O)c1Cl` [CLOPIDOL], the inhibition turned out to be 7%.

Regarding `NC1=NCCN1CC(=O)O` [CYCLOCREATINE], the inhibition is 11%.

Turning to `NCCSSCCN` [CYSTAMINE], the inhibition amounted to 6.34%.

Staying with this test, now noted: single concentration 20mM as printed; screening of NINDS set, sheet Screen 1.
Turning to `CC(=O)[C@@]1(O)CC[C@H]2[C@@H]3C=C(Cl)C4=CC(=O)[C@@H]5C[C@@H]5[C@]4(C)[C@H]3CC[C@@]21C` [CYPROTERONE], the “20mM inhibition LmjIPCS” value is given as 10%.
